Values quoted from earlier work, collected in patent publication US20070141027A1, “Non-lethal conditioning methods for conditioning a recipient for bone marrow transplantation” (UNIVERSITY OF LOUISVILLE RESEARCH FOUNDATION INC., priority 2003, published 2007).

Test system: mice
Conditions: reduced from 700 cGy TBI alone; CyP 200 mg/kg i.p. 2 days after BMT; ALG or anti-CD8 on day -3 added to it

O=P1(N(CCCl)CCCl)NCCCO1 (stereo not shown) [cyclophosphamide (CyP), cyclophosphamide]
TBI dose for allogeneic marrow engraftment: 500 cGy
